Key:
Rhizoctonia solani = test: Hypha growth inhibition, toxicity determination for Rhizoctonia solani; assay type: cell-based; conditions: PDA medium, 25° C.
Method: (§1) Fungicidal properties of Thifluzamide and Ipconazole were analyzed in detail.
(§2) Test targets were Rhizoctonia solani and Sclerotium rolfsii, but not limited herein. […] Hypha blocks having a diameter of 5 mm were made on the edges of pre-culture colonies by a sterilized puncher and respectively transferred onto different medium plates for culturing at 25° C. A hypha growth measurement method was adopted in the test to prepare drug-containing media according to different treatments; the hypha blocks having the diameter of 5 mm were made on the edges of pre-culture colonies by the sterilized puncher and respectively transferred onto medium plates having different drug contents; a colony diameter was measured by a crossing method; the colony diameter (mm) was measured; and a growth inhibition ratio was calculated by the following formulas: […]
(§3) The hypha growth inhibition ratio was converted into an inhibition probability value (y); the agent concentration was converted into a concentration logarithm (x); a toxic regression line was drawn by taking the concentration logarithm as a horizontal coordinate and taking the probability value as a vertical coordinate; a toxic regression equation of the single agents such as the Thfiluzamide and Ipconazole and a mixture thereof for pathogenic bacteria was solved; and the EC50 value and a related ratio r were calculated. […]

Sclerotium rolfsii = test: Hypha growth inhibition, toxicity determination for Sclerotium rolfsii; assay type: cell-based; conditions: PDA medium, 25° C.
Method: as §1, §2, §3

[1] = pH value of 5-9; cited from earlier work
rabbit = conditions: cited from earlier work

SMILES	EC50 ppm (Rhizoctonia solani) [ppm]	EC50 ppm (Sclerotium rolfsii) [ppm]	stability [1]	acute dermal LD50 (rabbit) [mg/kg]
CC(C)C1CCC(Cc2ccc(Cl)cc2)C1(O)Cn1cncn1 (stereo not drawn) [Ipconazole, (1RS, 2SR, 5RS; 1RS, 2SR, 5 SR)-2-(4-chlorobenzyl)-5-isopropyl-1-(1H-1,2,4-triazole-1-ylmethyl) cyclopentanol]	0.0217	0.0327	–	–
Cc1nc(C(F)(F)F)c(C(=O)Nc2c(Br)cc(OC(F)(F)F)cc2Br)s1 [Thifluzamide, 2′,6′-dibromo-2-methyl-4′-trifluoromethoxy-4-trifluoromethyl-1,3-thiadiazole-5-hydroxyanilide]	0.154	0.1258	stable	> 2000

— US20230157292A1, “SEED COATING FORMULA FOR CONTROLLING SOYBEAN SOUTHERN BLIGHT AND SOYBEAN SHEATH BLIGHT” (Institute of Plant Protection and Agro-products Safety, …, priority 2022, published 2023)
